In the supplement of paper PMC10307832 one finds relative viability data, which are given here for eight cell lines.

Holding throughout (assay): relative viability (nuclei count vs DMSO), 5 days (fraction); higher = more cells survive
Compound in the experiment “Linifanib + Pemetrexed”: Cc1ccc(F)c(NC(=O)Nc2ccc(-c3cccc4[nH]nc(N)c34)cc2)c1 [Linifanib] + Nc1nc2[nH]cc(CCc3ccc(C(=O)N[C@@H](CCC(=O)O)C(=O)O)cc3)c2c(=O)[nH]1 [Pemetrexed] (partner 0.2 µM)
An outline of the steps:
(§1)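 Lung cancer cell lines in 1536-well plates were dosed by pin tool the day after seeding, either with one drug alone or with a fixed anchor-drug dose plus five library-drug doses (not always all listed) in √10 steps. After 5 days, cells were fixed and their nuclei stained in one step (final 0.05% Triton X-100, 1% formaldehyde, 1 ug/ml Hoechst), then counted on 4× images. Relative viability is the nuclei count in treated wells divided by that in vehicle wells. Values are medians of duplicate plates.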

Compound in the experiment “Linifanib + Navitoclax”: Cc1ccc(F)c(NC(=O)Nc2ccc(-c3cccc4[nH]nc(N)c34)cc2)c1 [Linifanib] + CC1(C)CCC(c2ccc(Cl)cc2)=C(CN2CCN(c3ccc(C(=O)NS(=O)(=O)c4ccc(N[C@H](CCN5CCOCC5)CSc5ccccc5)c(S(=O)(=O)C(F)(F)F)c4)cc3)CC2)C1 [Navitoclax] (partner 0.5 µM)
An outline of the steps: as §1

Compound in the experiment “Linifanib + Tozasertib”: Cc1ccc(F)c(NC(=O)Nc2ccc(-c3cccc4[nH]nc(N)c34)cc2)c1 [Linifanib] + Cc1cc(Nc2cc(N3CCN(C)CC3)nc(Sc3ccc(NC(=O)C4CC4)cc3)n2)n[nH]1 [Tozasertib] (partner 0.1 µM)
A digest of the protocol: as §1

Compound in the experiment “Linifanib + Crizotinib”: Cc1ccc(F)c(NC(=O)Nc2ccc(-c3cccc4[nH]nc(N)c34)cc2)c1 [Linifanib] + C[C@@H](Oc1cc(-c2cnn(C3CCNCC3)c2)cnc1N)c1c(Cl)ccc(F)c1Cl [Crizotinib] (partner 1 µM)
A digest of the protocol: as §1

Compound in the experiment “Linifanib + AZD7762”: Cc1ccc(F)c(NC(=O)Nc2ccc(-c3cccc4[nH]nc(N)c34)cc2)c1 [Linifanib] + NC(=O)Nc1cc(-c2cccc(F)c2)sc1C(=O)N[C@H]1CCCNC1 [AZD7762] (partner 0.2 µM)
An outline of the steps: as §1

Compound in the experiment “Linifanib + Olaparib”: Cc1ccc(F)c(NC(=O)Nc2ccc(-c3cccc4[nH]nc(N)c34)cc2)c1 [Linifanib] + O=C(c1cc(Cc2n[nH]c(=O)c3ccccc23)ccc1F)N1CCN(C(=O)C2CC2)CC1 [Olaparib] (partner 8 µM)
A digest of the protocol:
as §1

In the case of HCC-827, the relative viability in the experiment with Linifanib + Pemetrexed (first compound 0.03162 µM) was determined as 0.21; with Linifanib + Pemetrexed (first compound 0.1 µM), 0.265; with Linifanib + Pemetrexed (first compound 0.3162 µM) it was 0.235; with Linifanib + Navitoclax (first compound 0.03162 µM) it was 1.02; with Linifanib + Navitoclax (first compound 0.1 µM) it was 1.02; with Linifanib + Navitoclax (first compound 0.3162 µM), 1. Moreover, the relative viability with Linifanib + Tozasertib (first compound 0.03162 µM) was determined as 0.442; with Linifanib + Tozasertib (first compound 0.1 µM), 0.419; in the experiment with Linifanib + Tozasertib (first compound 0.3162 µM) it was 0.384; in the experiment with Linifanib + Crizotinib (first compound 0.03162 µM), 0.957; in the experiment with Linifanib + Crizotinib (first compound 0.1 µM), 0.957; with Linifanib + Crizotinib (first compound 0.3162 µM), 0.884. The relative viability was determined as 0.204 with Linifanib + AZD7762 (first compound 0.03162 µM); 0.231 with Linifanib + AZD7762 (first compound 0.1 µM); 0.275 in the experiment with Linifanib + AZD7762 (first compound 0.3162 µM); 0.651 with Linifanib + Olaparib (first compound 0.03162 µM); 0.711 in the experiment with Linifanib + Olaparib (first compound 0.1 µM); 0.654 with Linifanib + Olaparib (first compound 0.3162 µM).

As to HCC-366, the relative viability with Linifanib + Pemetrexed (first compound 0.03162 µM) turned out to be 0.159; in the experiment with Linifanib + Pemetrexed (first compound 0.1 µM) it was 0.15; with Linifanib + Pemetrexed (first compound 0.3162 µM) it was 0.139; with Linifanib + Navitoclax (first compound 0.03162 µM), 1.12; with Linifanib + Navitoclax (first compound 0.1 µM), 1.11; with Linifanib + Navitoclax (first compound 0.3162 µM), 0.874. Besides, the relative viability stood at 0.0836 with Linifanib + Tozasertib (first compound 0.03162 µM); 0.0997 with Linifanib + Tozasertib (first compound 0.1 µM); 0.105 with Linifanib + Tozasertib (first compound 0.3162 µM); 0.558 with Linifanib + Crizotinib (first compound 0.03162 µM); 0.69 in the experiment with Linifanib + Crizotinib (first compound 0.1 µM); 0.454 with Linifanib + Crizotinib (first compound 0.3162 µM). The relative viability in the experiment with Linifanib + AZD7762 (first compound 0.03162 µM) worked out at 0.181; with Linifanib + AZD7762 (first compound 0.1 µM) it was 0.243; with Linifanib + AZD7762 (first compound 0.3162 µM) it was 0.221; with Linifanib + Olaparib (first compound 0.03162 µM), 0.337; in the experiment with Linifanib + Olaparib (first compound 0.1 µM), 0.458; with Linifanib + Olaparib (first compound 0.3162 µM), 0.323.

NCI-H2405: the relative viability was determined as 1.06 with Linifanib + Pemetrexed (first compound 0.03162 µM); 1.11 with Linifanib + Pemetrexed (first compound 0.1 µM); 1.04 in the experiment with Linifanib + Pemetrexed (first compound 0.3162 µM); 0.889 with Linifanib + Navitoclax (first compound 0.03162 µM); 0.88 with Linifanib + Navitoclax (first compound 0.1 µM); 0.754 with Linifanib + Navitoclax (first compound 0.3162 µM). Also, the relative viability with Linifanib + Tozasertib (first compound 0.03162 µM) was 0.785; with Linifanib + Tozasertib (first compound 0.1 µM), 0.809; in the experiment with Linifanib + Tozasertib (first compound 0.3162 µM), 0.778; with Linifanib + Crizotinib (first compound 0.03162 µM), 0.855; in the experiment with Linifanib + Crizotinib (first compound 0.1 µM) it was 0.86; with Linifanib + Crizotinib (first compound 0.3162 µM), 0.85. The relative viability amounted to 0.71 with Linifanib + AZD7762 (first compound 0.03162 µM); 0.777 with Linifanib + AZD7762 (first compound 0.1 µM); 0.803 with Linifanib + AZD7762 (first compound 0.3162 µM); 0.94 with Linifanib + Olaparib (first compound 0.03162 µM); 0.835 in the experiment with Linifanib + Olaparib (first compound 0.1 µM); 0.828 in the experiment with Linifanib + Olaparib (first compound 0.3162 µM).

Take NCI-H23: the relative viability came to 0.66 with Linifanib + Pemetrexed (first compound 0.03162 µM); 0.882 with Linifanib + Pemetrexed (first compound 0.1 µM); 0.761 with Linifanib + Pemetrexed (first compound 0.3162 µM); 0.98 in the experiment with Linifanib + Navitoclax (first compound 0.03162 µM); 0.99 with Linifanib + Navitoclax (first compound 0.1 µM); 0.61 with Linifanib + Navitoclax (first compound 0.3162 µM). Moreover, the relative viability with Linifanib + Tozasertib (first compound 0.03162 µM) was 0.366; in the experiment with Linifanib + Tozasertib (first compound 0.1 µM), 0.39; with Linifanib + Tozasertib (first compound 0.3162 µM) it was 0.329; with Linifanib + Crizotinib (first compound 0.03162 µM), 0.555; in the experiment with Linifanib + Crizotinib (first compound 0.1 µM), 0.463; with Linifanib + Crizotinib (first compound 0.3162 µM) it was 0.506. Also, the relative viability with Linifanib + AZD7762 (first compound 0.03162 µM) is 0.259; with Linifanib + AZD7762 (first compound 0.1 µM), 0.287; with Linifanib + AZD7762 (first compound 0.3162 µM) it was 0.31; in the experiment with Linifanib + Olaparib (first compound 0.03162 µM), 0.358; with Linifanib + Olaparib (first compound 0.1 µM), 0.347; with Linifanib + Olaparib (first compound 0.3162 µM), 0.186.

On to NCI-H2347, for which the relative viability was found to be 0.434 with Linifanib + Pemetrexed (first compound 0.03162 µM); 0.431 with Linifanib + Pemetrexed (first compound 0.1 µM); 0.425 with Linifanib + Pemetrexed (first compound 0.3162 µM); 0.826 in the experiment with Linifanib + Navitoclax (first compound 0.03162 µM); 1.01 with Linifanib + Navitoclax (first compound 0.1 µM); 0.733 with Linifanib + Navitoclax (first compound 0.3162 µM). Also, the relative viability worked out at 0.615 in the experiment with Linifanib + Tozasertib (first compound 0.03162 µM); 0.523 with Linifanib + Tozasertib (first compound 0.1 µM); 0.591 with Linifanib + Tozasertib (first compound 0.3162 µM); 0.727 in the experiment with Linifanib + Crizotinib (first compound 0.03162 µM); 0.7 with Linifanib + Crizotinib (first compound 0.1 µM); 0.812 in the experiment with Linifanib + Crizotinib (first compound 0.3162 µM). Moreover, the relative viability worked out at 0.822 with Linifanib + AZD7762 (first compound 0.03162 µM); 0.803 with Linifanib + AZD7762 (first compound 0.1 µM); 0.653 with Linifanib + AZD7762 (first compound 0.3162 µM); 0.629 with Linifanib + Olaparib (first compound 0.03162 µM); 0.646 with Linifanib + Olaparib (first compound 0.1 µM); 0.565 with Linifanib + Olaparib (first compound 0.3162 µM).

NCI-H2170: the relative viability in the experiment with Linifanib + Pemetrexed (first compound 0.03162 µM) was 0.265; with Linifanib + Pemetrexed (first compound 0.1 µM), 0.276; with Linifanib + Pemetrexed (first compound 0.3162 µM) it was 0.297; with Linifanib + Navitoclax (first compound 0.03162 µM), 0.557; with Linifanib + Navitoclax (first compound 0.1 µM), 0.616; with Linifanib + Navitoclax (first compound 0.3162 µM), 0.448. Also, the relative viability in the experiment with Linifanib + Tozasertib (first compound 0.03162 µM) came out at 0.706; with Linifanib + Tozasertib (first compound 0.1 µM), 0.716; in the experiment with Linifanib + Tozasertib (first compound 0.3162 µM) it was 0.712; with Linifanib + Crizotinib (first compound 0.03162 µM) it was 1.33; with Linifanib + Crizotinib (first compound 0.1 µM), 1.35; with Linifanib + Crizotinib (first compound 0.3162 µM) it was 1.11. Moreover, the relative viability with Linifanib + AZD7762 (first compound 0.03162 µM) was found to be 0.831; in the experiment with Linifanib + AZD7762 (first compound 0.1 µM), 0.954; with Linifanib + AZD7762 (first compound 0.3162 µM), 0.843; with Linifanib + Olaparib (first compound 0.03162 µM), 0.612; in the experiment with Linifanib + Olaparib (first compound 0.1 µM), 0.701; in the experiment with Linifanib + Olaparib (first compound 0.3162 µM) it was 0.566.

Regarding PC-3 [JPC-3], the relative viability with Linifanib + Pemetrexed (first compound 0.03162 µM) stood at 1.03; with Linifanib + Pemetrexed (first compound 0.1 µM), 1.05; in the experiment with Linifanib + Pemetrexed (first compound 0.3162 µM), 0.94; with Linifanib + Navitoclax (first compound 0.03162 µM) it was 0.878; with Linifanib + Navitoclax (first compound 0.1 µM), 0.826; with Linifanib + Navitoclax (first compound 0.3162 µM), 0.77. The relative viability with Linifanib + Tozasertib (first compound 0.03162 µM) is 0.893; with Linifanib + Tozasertib (first compound 0.1 µM), 0.979; with Linifanib + Tozasertib (first compound 0.3162 µM) it was 0.811; with Linifanib + Crizotinib (first compound 0.03162 µM) it was 1; with Linifanib + Crizotinib (first compound 0.1 µM), 1.01; with Linifanib + Crizotinib (first compound 0.3162 µM), 0.986. Besides, the relative viability in the experiment with Linifanib + AZD7762 (first compound 0.03162 µM) turned out to be 0.796; with Linifanib + AZD7762 (first compound 0.1 µM) it was 0.856; with Linifanib + AZD7762 (first compound 0.3162 µM), 0.776; with Linifanib + Olaparib (first compound 0.03162 µM), 1.09; with Linifanib + Olaparib (first compound 0.1 µM), 1.14; in the experiment with Linifanib + Olaparib (first compound 0.3162 µM), 1.13.

Consider NCI-H1355, for which the relative viability is 1.07 with Linifanib + Pemetrexed (first compound 0.03162 µM); 1.13 with Linifanib + Pemetrexed (first compound 0.1 µM); 1.08 in the experiment with Linifanib + Pemetrexed (first compound 0.3162 µM); 0.891 with Linifanib + Navitoclax (first compound 0.03162 µM); 0.953 in the experiment with Linifanib + Navitoclax (first compound 0.1 µM); 0.963 in the experiment with Linifanib + Navitoclax (first compound 0.3162 µM). Besides, the relative viability is 0.504 in the experiment with Linifanib + Tozasertib (first compound 0.03162 µM); 0.547 in the experiment with Linifanib + Tozasertib (first compound 0.1 µM); 0.551 with Linifanib + Tozasertib (first compound 0.3162 µM); 1.04 in the experiment with Linifanib + Crizotinib (first compound 0.03162 µM); 1.02 in the experiment with Linifanib + Crizotinib (first compound 0.1 µM); 1.14 with Linifanib + Crizotinib (first compound 0.3162 µM). In addition, the relative viability with Linifanib + AZD7762 (first compound 0.03162 µM) is 0.648; with Linifanib + AZD7762 (first compound 0.1 µM) it was 0.765; in the experiment with Linifanib + AZD7762 (first compound 0.3162 µM), 0.792; in the experiment with Linifanib + Olaparib (first compound 0.03162 µM), 0.768; with Linifanib + Olaparib (first compound 0.1 µM) it was 0.832; in the experiment with Linifanib + Olaparib (first compound 0.3162 µM), 0.726.
